Assay results taken from patent US10392383B2, “3-(1H-benzo[d]imidazol-2-yl)-1H-pyrazolo[4,3-b]pyridines and therapeutic uses thereof” (Samumed, LLC, priority 2015, dated 2019).

Columns and labels:
Format in all cases: cell-based
[1] = tested on: Wnt activity (Sp5-Luc reporter, Wnt-responsive promoter) in SW480 colon carcinoma cells; assay: Wnt activity screening assay: Sp5-Luc reporter gene assay in SW480 cells; conditions: Homo sapiens, overnight incubation, 10-point curve starting from 10 μM
Outline: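 SW480 cells stably transduced with an Sp5 promoter (eight TCF/LEF sites)–firefly luciferase lentiviral reporter, plated at 4,000 cells/well in 1% FBS medium with compounds (10-point 1:3 series from 10 μM, 0.1% DMSO) overnight at 37 °C. BrightGlo luminescence normalised to DMSO; EC50 by four-parameter fit, else % inhibition at 10 μM.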

SW480 colon cancer cells = assay: Cell viability assay (CellTiter-Blue) in SW480 cells; conditions: Homo sapiens, 96 h, four days; for EC50: CellTiter-Blue, 10 μM to 0.0045 μM; for inhibition at 10 µM: read-out: percent inhibition at 10 μM (given for EC50 of >10 μM)
Outline: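 Approximately 2×10^3 SW480 cells per well are seeded with compound (8 points, threefold steps, top 10 μM) and incubated four days at 37 °C. CellTiter-Blue is then added for about 3 h and fluorescence read. Non-linear regression gives EC50; for values beyond 10 μM, percent inhibition at that concentration is listed.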

[2] = tested on: primary human fibroblasts derived from IPF patients (LL29 cells) treated with TGF-β1; assay: Inhibition of the fibrotic process: αSMA staining in TGF-β1-treated LL29 fibroblasts; conditions: Fibroblast; for EC50: 96 h, LL29 fibroblasts treated with TGF-β1 (20 ng/mL), 4 days, Table 4; for inhibition at 10 µM: LL29 fibroblasts treated with TGF-β1, Table 4, read-out: percent inhibition at 10 μM (given in parentheses for EC50 >10 μM)
Outline: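 IPF-derived LL29 fibroblasts in F12 with 1% FBS dosed with compound (11-point, 10 μM to 1.87 nM, 0.1% DMSO), then 20 ng/mL TGF-β1 after 1 h, and cultured 4 days at 37 °C. αSMA-positive cell fraction imaged after excluding SYTOX-positive cells, normalized to TGF-β1/DMSO wells; EC50 by non-linear regression, % inhibition at 10 μM if EC50 >10 μM.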

**Q.** What does the source list for `CCC(=O)Nc1cncc(-c2ccc3[nH]nc(-c4nc5c(-c6cccc(F)c6)cccc5[nH]4)c3n2)c1` [Compound 1, N-(5-(3-(4-(3-Fluorophenyl)-1H-benzo[d]imidazol-2-yl)-1H-pyrazolo[4,3-b]pyridin-5-yl)pyridin-3-yl)propionamide]?
**A.** EC50 [1]: 1360 nM; EC50 (SW480 colon cancer cells): 2740 nM; EC50 [2]: 1180 nM

**Q.** What does the source list for `CC(C)CC(=O)Nc1cncc(-c2ccc3[nH]nc(-c4nc5c(-c6cccc(F)c6)cccc5[nH]4)c3n2)c1` [Compound 2, N-(5-(3-(4-(3-Fluorophenyl)-1H-benzo[d]imidazol-2-yl)-1H-pyrazolo[4,3-b]pyridin-5-yl)pyridin-3-yl)-3-methylbutanamide]?
**A.** EC50 [1]: 1160 nM; inhibition at 10 µM (SW480 colon cancer cells): 14.2%; EC50 (SW480 colon cancer cells): > 10000 nM; EC50 [2]: 9860 nM

**Q.** How did the EC50 [1] turn out when `CN(C)c1cncc(-c2ccc3[nH]nc(-c4nc5c(-c6cccc(F)c6)cccc5[nH]4)c3n2)c1` [Compound 7, 5-(3-(4-(3-fluorophenyl)-1H-benzo[d]imidazol-2-yl)-1H-pyrazolo[4,3-b]pyridin-5-yl)-N,N-dimethylpyridin-3-amine] was run?
**A.** 779 nM

**Q.** What about the EC50 (SW480 colon cancer cells) of the same compound?
**A.** 2780 nM

**Q.** And the EC50 [2]?
**A.** 1440 nM

**Q.** Which results are given for `CN(C)Cc1cncc(-c2ccc3[nH]nc(-c4nc5c(-c6cccc(F)c6)cccc5[nH]4)c3n2)c1` [Compound 13, 1-(5-(3-(4-(3-Fluorophenyl)-1H-benzo[d]imidazol-2-yl)-1H-pyrazolo[4,3-b]pyridin-5-yl)pyridin-3-yl)-N,N-dimethylmethanamine]?
**A.** EC50 [1]: 637 nM; EC50 (SW480 colon cancer cells): 466 nM; EC50 [2]: 616 nM

**Q.** How did the EC50 [1] turn out when `Fc1cccc(-c2cccc3[nH]c(-c4n[nH]c5ccc(-c6ccncc6)nc45)nc23)c1` [Compound 18, 3-(4-(3-Fluorophenyl)-1H-benzo[d]imidazol-2-yl)-5-(pyridin-4-yl)-1H-pyrazolo[4,3-b]pyridine] was run?
**A.** 1320 nM

**Q.** What about the inhibition at 10 µM (SW480 colon cancer cells) of the same compound?
**A.** 0%

**Q.** What about the EC50 (SW480 colon cancer cells) of the same compound?
**A.** > 10000 nM

**Q.** What about the EC50 [2] of the same compound?
**A.** 231 nM

**Q.** What does the source list for `O=C(Nc1cncc(-c2ccc3[nH]nc(-c4nc5c(-c6cccc(F)c6)cccc5[nH]4)c3n2)c1)C1CC1` [Compound 20, N-(5-(3-(4-(3-Fluorophenyl)-1H-benzo[d]imidazol-2-yl)-1H-pyrazolo[4,3-b]pyridin-5-yl)pyridin-3-yl)cyclopropanecarboxamide]?
**A.** EC50 [1]: 1080 nM; EC50 (SW480 colon cancer cells): 4240 nM; EC50 [2]: 1200 nM

**Q.** How did the EC50 [1] turn out when `O=C(Nc1cncc(-c2ccc3[nH]nc(-c4nc5c(N6CCCCC6)cccc5[nH]4)c3n2)c1)C1CC1` [Compound 188, N-(5-(3-(4-(Piperidin-1-yl)-1H-benzo[d]imidazol-2-yl)-1H-pyrazolo[4,3-b]pyridin-5-yl)pyridin-3-yl)cyclopropanecarboxamide] was run?
**A.** 3730 nM

**Q.** And the EC50 (SW480 colon cancer cells)?
**A.** 4540 nM

**Q.** What about the inhibition at 10 µM [2] of the same compound?
**A.** 49.2%

**Q.** What about the EC50 [2] of the same compound?
**A.** > 10000 nM

**Q.** With `FC1(F)CCN(Cc2cncc(-c3ccc4[nH]nc(-c5nc6c(N7CCCCC7)cccc6[nH]5)c4n3)c2)C1` [Compound 194, 5-(5-((3,3-Difluoropyrrolidin-1-yl)methyl)pyridin-3-yl)-3-(4-(piperidin-1-yl)-1H-benzo[d]imidazol-2-yl)-1H-pyrazolo[4,3-b]pyridine] as the compound, how does the EC50 [1] read?
**A.** 3910 nM

**Q.** What about the inhibition at 10 µM (SW480 colon cancer cells) of the same compound?
**A.** 25.4%

**Q.** And the EC50 (SW480 colon cancer cells)?
**A.** > 10000 nM

**Q.** What about the EC50 [2] of the same compound?
**A.** 6660 nM

**Q.** How did the EC50 [1] turn out when `Cc1cn(-c2cccc3[nH]c(-c4n[nH]c5ccc(-c6cncc(NC(=O)CC(C)C)c6)nc45)nc23)cn1` [Compound 198, 3-Methyl-N-(5-(3-(4-(4-methyl-1H-imidazol-1-yl)-1H-benzo[d]imidazol-2-yl)-1H-pyrazolo[4,3-b]pyridin-5-yl)pyridin-3-yl)butanamide] was run?
**A.** 1040 nM

**Q.** And the EC50 (SW480 colon cancer cells)?
**A.** 1220 nM

**Q.** And the EC50 [2]?
**A.** 1890 nM

**Q.** What does the source list for `Cc1cn(-c2cccc3[nH]c(-c4n[nH]c5ccc(-c6cncc(NC(=O)C(C)(C)C)c6)nc45)nc23)cn1` [Compound 204, N-(5-(3-(4-(4-Methyl-1H-imidazol-1-yl)-1H-benzo[d]imidazol-2-yl)-1H-pyrazolo[4,3-b]pyridin-5-yl)pyridin-3-yl)pivalamide]?
**A.** EC50 [1]: 1240 nM; EC50 (SW480 colon cancer cells): 1510 nM; EC50 [2]: 997 nM

**Q.** Which EC50 [1] does the source give for `Cc1cn(-c2cccc3[nH]c(-c4n[nH]c5ccc(-c6cncc(CN7CCCC7)c6)nc45)nc23)cn1` [Compound 210, 3-(4-(4-Methyl-1H-imidazol-1-yl)-1H-benzo[d]imidazol-2-yl)-5-(5-(pyrrolidin-1-ylmethyl)pyridin-3-yl)-1H-pyrazolo[4,3-b]pyridine] here?
**A.** 4110 nM

**Q.** What about the EC50 (SW480 colon cancer cells) of the same compound?
**A.** 8470 nM

**Q.** What about the inhibition at 10 µM [2] of the same compound?
**A.** 30.4%

**Q.** What about the EC50 [2] of the same compound?
**A.** > 10000 nM

**Q.** For `Cc1cn(-c2cccc3[nH]c(-c4n[nH]c5ccc(-c6cncc(NC(=O)C7CCC7)c6)nc45)nc23)cn1` [Compound 217, N-(5-(3-(4-(4-Methyl-1H-imidazol-1-yl)-1H-benzo[d]imidazol-2-yl)-1H-pyrazolo[4,3-b]pyridin-5-yl)pyridin-3-yl)cyclobutanecarboxamide], which EC50 [1] is on record?
**A.** 2840 nM

**Q.** And the EC50 (SW480 colon cancer cells)?
**A.** 3500 nM

**Q.** And the inhibition at 10 µM [2]?
**A.** 0%

**Q.** And the EC50 [2]?
**A.** > 10000 nM

**Q.** Which results are given for `CN1CCN(c2cccc3[nH]c(-c4n[nH]c5ccc(-c6cncc(NC(=O)C7CCCC7)c6)nc45)nc23)CC1` [Compound 246, N-(5-(3-(4-(4-Methylpiperazin-1-yl)-1H-benzo[d]imidazol-2-yl)-1H-pyrazolo [4,3-b]pyridin-5-yl)pyridin-3-yl)cyclopentanecarboxamide]?
**A.** EC50 [1]: 8530 nM; EC50 (SW480 colon cancer cells): 8360 nM; EC50 [2]: 4940 nM

**Q.** Which EC50 [1] does the source give for `c1cncc(-c2ccc3[nH]nc(-c4nc5ccccc5[nH]4)c3n2)c1` [Compound 256, 3-(1H-Benzo[d]imidazol-2-yl)-5-(pyridin-3-yl)-1H-pyrazolo[4,3-b]pyridine] here?
**A.** 5480 nM

**Q.** And the EC50 (SW480 colon cancer cells)?
**A.** 8840 nM

**Q.** And the inhibition at 10 µM [2]?
**A.** 0%

**Q.** And the EC50 [2]?
**A.** > 10000 nM

**Q.** Which results are given for `CC(C)(C)CC(=O)Nc1cncc(-c2ccc3[nH]nc(-c4nc5ccccc5[nH]4)c3n2)c1` [Compound 268, N-(5-(3-(1H-Benzo[d]imidazol-2-yl)-1H-pyrazolo[4,3-b]pyridin-5-yl)pyridin-3-yl)-3,3-dimethylbutanamide]?
**A.** EC50 [1]: 3550 nM; EC50 (SW480 colon cancer cells): 6950 nM; EC50 [2]: 2380 nM

**Q.** Which EC50 [1] does the source give for `O=C(Nc1cncc(-c2ccc3[nH]nc(-c4nc5ccccc5[nH]4)c3n2)c1)C1CCCCC1` [Compound 275, N-(5-(3-(1H-Benzo[d]imidazol-2-yl)-1H-pyrazolo[4,3-b]pyridin-5-yl)pyridin-3-yl) cyclohexanecarboxamide] here?
**A.** 1980 nM

**Q.** And the EC50 (SW480 colon cancer cells)?
**A.** 593 nM

**Q.** What about the EC50 [2] of the same compound?
**A.** 80.8 nM

**Q.** How did the EC50 [1] turn out when `c1ccc(-c2ccc3[nH]nc(-c4nc5ccccc5[nH]4)c3n2)nc1` [Compound 280, 3-(1H-Benzo[d]imidazol-2-yl)-5-(pyridin-2-yl)-1H-pyrazolo[4,3-b]pyridine] was run?
**A.** 611 nM

**Q.** And the EC50 (SW480 colon cancer cells)?
**A.** 1890 nM

**Q.** And the EC50 [2]?
**A.** 4740 nM

**Q.** Which results are given for `Cc1ccncc1-c1ccc2[nH]nc(-c3nc4c(-c5ccsc5)cccc4[nH]3)c2n1` [Compound 285, 5-(4-Methylpyridin-3-yl)-3-(4-(thiophen-3-yl)-1H-benzo[d]imidazol-2-yl)-1H-pyrazolo[4,3-b]pyridine]?
**A.** EC50 [1]: 986 nM; EC50 (SW480 colon cancer cells): 5400 nM; inhibition at 10 µM [2]: 0%; EC50 [2]: > 10000 nM

**Q.** `CCCC(=O)Nc1cncc(-c2ccc3[nH]nc(-c4nc5c(-c6ccsc6)cccc5[nH]4)c3n2)c1` [Compound 297, N-(5-(3-(4-(Thiophen-3-yl)-1H-benzo[d]imidazol-2-yl)-1H-pyrazolo[4,3-b]pyridin-5-yl)pyridin-3-yl)butyramide] was tested. Which EC50 [1] did it give?
**A.** 643 nM

**Q.** What about the EC50 (SW480 colon cancer cells) of the same compound?
**A.** 8920 nM

**Q.** And the EC50 [2]?
**A.** 1300 nM

**Q.** With `c1ccc(CNCc2cncc(-c3ccc4[nH]nc(-c5nc6c(-c7ccsc7)cccc6[nH]5)c4n3)c2)cc1` [Compound 304, N-Benzyl-1-(5-(3-(4-(thiophen-3-yl)-1H-benzo[d]imidazol-2-yl)-1H-pyrazolo[4,3-b]pyridin-5-yl)pyridin-3-yl)methanamine] as the compound, how does the EC50 [1] read?
**A.** 2760 nM

**Q.** What about the EC50 (SW480 colon cancer cells) of the same compound?
**A.** 3460 nM

**Q.** What about the EC50 [2] of the same compound?
**A.** 2200 nM

**Q.** For `FC1(F)CCN(Cc2cncc(-c3ccc4[nH]nc(-c5nc6c(-c7ccsc7)cccc6[nH]5)c4n3)c2)C1` [Compound 306, 5-(5-((3,3-Difluoropyrrolidin-1-yl)methyl)pyridin-3-yl)-3-(4-(thiophen-3-yl)-1H-benzo[d]imidazol-2-yl)-1H-pyrazolo[4,3-b]pyridine], which EC50 [1] is on record?
**A.** 1650 nM

**Q.** What about the EC50 (SW480 colon cancer cells) of the same compound?
**A.** 4790 nM

**Q.** And the EC50 [2]?
**A.** 1230 nM

**Q.** `CCNCc1cncc(-c2ccc3[nH]nc(-c4nc5c(-c6ccoc6)cccc5[nH]4)c3n2)c1` [Compound 314, N-((5-(3-(4-(Furan-3-yl)-1H-benzo[d]imidazol-2-yl)-1H-pyrazolo[4,3-b]pyridin-5-yl)pyridin-3-yl)methyl)ethanamine] was tested. Which EC50 [1] did it give?
**A.** 3250 nM

**Q.** And the EC50 (SW480 colon cancer cells)?
**A.** 584 nM

**Q.** And the inhibition at 10 µM [2]?
**A.** 0%

**Q.** And the EC50 [2]?
**A.** > 10000 nM

**Q.** Which results are given for `CCC(=O)Nc1cncc(-c2ccc3[nH]nc(-c4nc5c(-c6cccs6)cccc5[nH]4)c3n2)c1` [Compound 337, N-(5-(3-(4-(Thiophen-2-yl)-1H-benzo[d]imidazol-2-yl)-1H-pyrazolo[4,3-b]pyridin-5-yl)pyridin-3-yl)propionamide]?
**A.** EC50 [1]: 3520 nM; EC50 (SW480 colon cancer cells): 3260 nM; EC50 [2]: 680 nM
